Source: US6436943B1 (dated 2002)

| SMILES | melting point [°C] |
| --- | --- |
| CCOC(=O)C1=C(C)NC(c2ccccn2)=NC1c1ccccc1 (stereo not shown) | 101 to 103 |
| COC(=O)C1=C(C)NC(c2ccccn2)=NC1c1ccccc1OC (stereo not shown) | 103 to 104 |
| COC(=O)C1=C(C)NC(c2ccccn2)=NC1c1ccccc1C (stereo not shown) | 100 to 101 |
| COC(=O)C1=C(C)NC(c2ccccn2)=NC1c1ccc(C#N)cc1 (stereo not shown) | 141 to 143 |
| CCOC(=O)C1=C(C)NC(c2ccncc2)=NC1c1ccccc1Cl (stereo not shown) | 101 to 103 |
| COC(=O)C1=C(C)NC(c2ccccn2)=NC1c1ccc(F)cc1[N+](=O)[O-] (stereo not shown) | 175 to 176 |
| COC(=O)C1=C(C)NC(c2ccccn2)=NC1c1ccsc1 (stereo not shown) | 108 to 109 |
| CC1=C(C(=O)OC(C)C)C(c2ccccc2Cl)N=C(c2ccccn2)N1 (stereo not shown) | 93 to 95 |
| COC(=O)C1=C(C)NC(c2ccccn2)=NC1c1ccc(-n2ccnn2)cc1 (stereo not shown) | 149 to 150 |
| COC(=O)C1=C(C)NC(c2ccccn2)=NC1C1CCCCC1.Cl (stereo not shown) | 149 to 150 |
| COC(=O)C1=C(C)NC(c2ccccn2)=NC1c1cccc(Cl)c1Cl (stereo not shown) | 125 to 127 |
| COC(=O)C1=C(C)NC(c2ccccn2)=NC1c1cccc2sc(-c3ccccc3)nc12 (stereo not shown) | 172 to 173 |
| CCCCOC(=O)C1=C(C)NC(c2ccccn2)=NC1c1ccccc1Cl (stereo not shown) | 176 to 178 |
| COC(=O)C1=C(C)NC(c2cccnc2)=NC1c1ccccc1Cl (stereo not shown) | 131 to 133 |
| COC(=O)C1=C(C)NC(c2ccccn2)=NC1c1cc([N+](=O)[O-])ccc1Cl (stereo not shown) | 151 to 153 |
| COC(=O)C1=C(C)NC(c2ccccn2)=NC1c1ccccc1[N+](=O)[O-] (stereo not shown) | 167 to 168 |
| COC(=O)C1=C(C)NC(c2ccccn2)=NC1c1ccc(Cl)cc1 (stereo not shown) | 201 to 202 |
| COOCC1=C(C)NC(c2ccccn2)=NC1c1cccc(Cl)c1 (stereo not shown) | 122 to 123 |
| COOCC1=C(C)NC(c2ccccn2)=NC1c1cccc([N+](=O)[O-])c1 (stereo not shown) | 179 to 180 |
| CC1=C(C(=O)OCCC#N)C(c2ccccc2Cl)N=C(c2ccccn2)N1 (stereo not shown) | 138 to 139 |
| COC(=O)C1=C(C)NC(c2ccccn2)=NC1c1ccccc1F (stereo not shown) | 217 to 218 |
| COOCC1=C(C)NC(c2ccccn2)=NC1c1ccco1 (stereo not shown) | 122 to 124 |
| CCCOOCC1=C(C)NC(c2ccccn2)=NC1c1ccccc1Cl (stereo not shown) | 105 to 110 |
| COOCC1=C(C)NC(c2ccccn2)=NC1c1ccccc1O (stereo not shown) | 131 to 132 |
| COC(=O)C1=C(C)NC(c2ccccn2)=NC1c1cccc2ncc(-c3ccccc3)cc12 (stereo not shown) | 176 to 177 |
